{
  "source": "patent US20160318862A1",
  "about": "“SYNTHESIS OF DELTA 12-PGJ3 AND RELATED COMPOUNDS” (WILLIAM MARSH RICE UNIVERSITY, priority 2013, published 2016)",
  "origin": "cited, not measured here",
  "key": {"[1]": {"tested_on": "topoisomerase"}, "[2]": {"tested_on": "tumor cells", "details": "incorporating into tumor cells and transferring into nuclei"}, "[3]": {"tested_on": "gadd45 promoter"}, "[4]": {"tested_on": "NF-κB-mediated transcription"}, "[5]": {"tested_on": "AML LSCs", "details": "murine models of AML; reported in U.S. Patent Publication 2013/0005737"}, "[6]": {"tested_on": "leukemia stem cells (LSCs)"}, "[7]": {"tested_on": "mice infected with Friend erythroleukemia virus or those expressing chronic myelogenous leukemia (CML) oncoprotein BCR-abl in the hematopoietic stem cell (HSC) …"}, "[8]": {"tested_on": "p53", "details": "LSCs and leukemia cells"}, "[9]": {"tested_on": "AML LSCs", "details": "human AML leukemia samples; reported in U.S. Patent Publication 2013/0005737"}, "[10]": {"tested_on": "normal hematopoietic stem cells"}, "[11]": {"target": "T1, peroxisome proliferator-activated receptor γ (PPARγ) (Homo sapiens, UniProt P37231)", "T1 sequence (P37231 1-505)": "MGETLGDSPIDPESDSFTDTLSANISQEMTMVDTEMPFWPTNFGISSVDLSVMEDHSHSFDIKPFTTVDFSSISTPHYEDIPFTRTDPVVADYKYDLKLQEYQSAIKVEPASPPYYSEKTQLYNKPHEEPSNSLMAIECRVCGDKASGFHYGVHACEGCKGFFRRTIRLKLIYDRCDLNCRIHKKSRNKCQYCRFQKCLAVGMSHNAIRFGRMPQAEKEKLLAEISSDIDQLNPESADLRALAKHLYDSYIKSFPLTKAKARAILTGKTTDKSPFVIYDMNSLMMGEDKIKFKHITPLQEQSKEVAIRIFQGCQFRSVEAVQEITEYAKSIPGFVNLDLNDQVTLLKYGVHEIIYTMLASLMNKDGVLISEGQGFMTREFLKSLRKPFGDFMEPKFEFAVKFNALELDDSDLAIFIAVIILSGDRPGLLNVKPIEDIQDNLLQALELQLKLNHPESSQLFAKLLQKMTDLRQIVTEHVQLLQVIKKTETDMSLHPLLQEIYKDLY"}},
  "note": "Read-outs that look alike come from different tables or passages of the source.",
  "data": [
    {"smiles": "CCCCC[C@H](O)C/C=C1/C(=O)C=C[C@@H]1C/C=C\\CCCC(=O)O", "note": "[Δ^12-PGJ2]", "values": [
      {"measurement": "topoisomerase activity", "setting": "[1]", "result": "inhibiting topoisomerase"},
      {"measurement": "antitumor effects", "setting": "[2]", "result": "strong antitumor effects"},
      {"measurement": "gadd45 promoter activity", "setting": "[3]", "result": "activating the gadd45 promoter independently of p53"}
    ]},
    {"smiles": "O=C(O)CCCC=CCC1C=CC(=O)C1=CCC(O)CC=CCC(F)(F)F", "note": "(stereo not shown) [compound 3, ω-Trifluoromethyl-Δ^12-PGJ3]", "values": [
      {"measurement": "NF-κB-mediated transcription", "setting": "[4]", "result": "Inhibition of the NF-κB-mediated transcription"}
    ]},
    {"smiles": "CC/C=C\\C[C@H](O)C/C=C1/C(=O)C=C[C@@H]1C/C=C\\CCCC(=O)O", "note": "[Δ^12-PGJ3]", "values": [
      {"measurement": "targeting of AML LSCs by inducing apoptosis", "setting": "[5]", "result": "effectively target AML LSCs by inducing apoptosis"},
      {"measurement": "eradication of LSCs", "setting": "[6]; in vivo, donor cells from treated mice unable to cause leukemia in secondary transplants", "result": "completely eradicated LSCs in vivo"},
      {"measurement": "apoptosis of leukemia stem cells", "setting": "[6]; mice spleen and bone marrow", "result": "selectively targets and induces apoptosis of leukemia stem cells"},
      {"measurement": "hematological parameters, splenic histology and survival", "setting": "[7]; intraperitoneal administration", "result": "completely restored normal hematological parameters, splenic histology, and enhanced the survival"},
      {"measurement": "development of leukemia", "setting": "[7]; two murine models of leukemia", "result": "alleviates the development of leukemia"},
      {"measurement": "expression of p53", "setting": "[8]", "result": "inducing the expression of p53"},
      {"measurement": "targeting of AML LSCs by inducing apoptosis", "setting": "[9]", "result": "effectively target AML LSCs by inducing apoptosis"}
    ]},
    {"smiles": "CC/C=C\\C[C@H](O)/C=C/[C@H]1C(=O)C=C[C@@H]1C/C=C\\CCCC(=O)O", "note": "[PGJ3]", "values": [
      {"measurement": "effect on normal hematopoietic stem cells or the differentiation of hematopoietic progenitors", "setting": "[10]", "result": "no effect"}
    ]},
    {"smiles": "CCCCC/C=C/C=C1/C(=O)C=C[C@@H]1C/C=C\\CCCC(=O)O", "note": "[15-deoxy-Δ^12,14-PGJ2]", "values": [
      {"measurement": "ligand potency for PPARγ", "setting": "[11]", "result": "most potent natural ligand reported to date"}
    ]}
  ]
}
